Reference: publication PMC3249837 (ACS chemical neuroscience, 2011)

System: PS1ΔE9
Assay type: binding
Conditions: competitor at 10 µM, probes at 200 nM

## CC(C)CC[C@H](c1ccc(Cl)cc1)N1CC[C@@H](CC(=O)O)C[C@H]1c1ccc(C(F)(F)F)cc1 [Compound 1]
  Competition of probe 4 and 5 labeling of PS1ΔE9 proteoliposomes: blocked
